The values below come from patent publication US11458138B2 (Novartis AG, priority 2017, dated 2022).

The test system of test [1] is limbal stem cells (LSCs). Put plainly: Differentiation of expanded LSCs into corneal epithelium cells (p63alpha / keratin 12). In kind it is cell-based, human. As to conditions: transferred to conditions that enable differentiation. The source says:
Shown are views where the transition from the p63alpha-positive cell identity to the keratin-12 identity are occurring.
These characteristics can be observed by immunohistochemistry or FACS.

The test system of test [2] is rabbit corneal surface. Nature of the test: Rabbit model of limbal stem cell deficiency, transplantation of expanded LSCs. In kind it is in vivo. The following applies: LSCs expanded in medium comprising the compound, combined with GelMA, delivered via contact lens. The source says:
FIG. 7B: Arrow is pointing to absence of keratin 19 staining. […] FIG. 7C: Arrow is pointing to absence of keratin-12 staining. […] FIG. 7D: Arrow is pointing to areas of positive keratin-19 staining.

Test [3] deals with LATS1 (Homo sapiens (Human), UniProt O95835). Put plainly: LATS1 biochemical assay (Table 1A, Compound Examples 1-290; method in the earlier part).
Sequence of LATS1 (O95835 whole entry, looked up, the tested form may be a part): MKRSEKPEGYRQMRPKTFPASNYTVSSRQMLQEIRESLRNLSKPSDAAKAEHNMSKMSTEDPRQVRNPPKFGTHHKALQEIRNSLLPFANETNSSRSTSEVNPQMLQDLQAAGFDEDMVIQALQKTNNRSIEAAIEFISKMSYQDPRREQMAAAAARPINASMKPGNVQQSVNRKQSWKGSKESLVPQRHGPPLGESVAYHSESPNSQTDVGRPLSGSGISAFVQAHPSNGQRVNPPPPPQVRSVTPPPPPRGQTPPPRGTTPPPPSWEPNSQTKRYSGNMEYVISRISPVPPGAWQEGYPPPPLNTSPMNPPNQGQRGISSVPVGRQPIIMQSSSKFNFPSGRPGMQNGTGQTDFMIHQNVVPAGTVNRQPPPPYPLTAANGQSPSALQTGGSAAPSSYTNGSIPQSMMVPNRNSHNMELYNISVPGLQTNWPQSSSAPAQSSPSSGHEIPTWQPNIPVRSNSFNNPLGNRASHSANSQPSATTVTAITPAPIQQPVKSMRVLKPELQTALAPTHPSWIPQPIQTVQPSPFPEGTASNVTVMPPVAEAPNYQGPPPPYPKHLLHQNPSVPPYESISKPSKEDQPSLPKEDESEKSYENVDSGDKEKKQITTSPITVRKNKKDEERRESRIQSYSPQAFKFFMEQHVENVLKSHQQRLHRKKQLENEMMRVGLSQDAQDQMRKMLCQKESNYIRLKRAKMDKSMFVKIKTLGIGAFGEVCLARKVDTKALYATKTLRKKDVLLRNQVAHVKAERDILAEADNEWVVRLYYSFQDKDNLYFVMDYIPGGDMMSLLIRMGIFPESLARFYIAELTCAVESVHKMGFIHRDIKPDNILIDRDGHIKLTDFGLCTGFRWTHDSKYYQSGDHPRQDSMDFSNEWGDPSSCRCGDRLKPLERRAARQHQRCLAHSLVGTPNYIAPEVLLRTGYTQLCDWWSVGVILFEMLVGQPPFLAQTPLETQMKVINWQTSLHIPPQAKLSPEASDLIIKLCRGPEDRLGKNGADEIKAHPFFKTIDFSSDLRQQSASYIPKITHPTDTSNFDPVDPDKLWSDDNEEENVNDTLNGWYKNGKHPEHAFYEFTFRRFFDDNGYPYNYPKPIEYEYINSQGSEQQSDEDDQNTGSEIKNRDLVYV
Sequence of LATS1 (Q7L9L4 whole entry partner, looked up, the tested form may be a part): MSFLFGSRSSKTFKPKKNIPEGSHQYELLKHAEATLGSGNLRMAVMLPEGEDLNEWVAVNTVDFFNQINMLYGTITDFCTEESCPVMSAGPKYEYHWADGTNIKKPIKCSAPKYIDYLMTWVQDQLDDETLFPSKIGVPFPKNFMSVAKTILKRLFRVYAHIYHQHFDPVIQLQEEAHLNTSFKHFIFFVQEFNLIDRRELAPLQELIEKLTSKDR
The target of test [4] is Human LATS2 kinase domain protein (Homo sapiens (Human), UniProt Q9NRM7). Nature of the test: LATS2 Biochemical Caliper Assay (Compound Examples 1-290). As to conditions: 400 micromolar ATP. The method in brief:
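LATS2 catalytic domain (aa 553-1088), co-purified with His-tagged MOBKL1A, reacted with compound for 3 h at 25° C before EDTA (25 mM) stop. Substrate and product separated by microfluidic electrophoresis (Caliper LabChip 3000) and quantified by fluorescence intensity.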

The subject of test [5] is Phospho-YAP (SER127) in HaCaT cells. Nature of the test: pYAP HTRF Assay (HaCaT Cells). As to conditions: Homo sapiens, 2 hours. The class given is cell-based, human. The method in brief:
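Phospho-YAP (Ser127) was measured by HTRF (665 nm/620 nm ratio) in HaCaT cells. Cells were grown 48 hours at 37° C at 5500 cells/well, exposed to compound for 2 hours, and incubated with detection reagents for 20 hrs at room temperature.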
On the technique in general: TR-FRET usually uses a lanthanide donor and a delayed reading to cut background.

For test [6], the system named is YAP nuclear translocation in HaCaT cells. Put plainly: YAP Translocation Assay (HaCaT Cells). In kind it is cell-based, human. As to conditions: Homo sapiens, 24 hours. The method in brief:
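HaCaT cells (20,000/well) in DMEM + 10% FBS were plated overnight at 37° C, then exposed to compound for 24 h at 37° C. Cells were fixed with PFA, permeabilized with 0.1% Triton/1.5% BSA and imaged by high-content imaging.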

Test [7] concerns Phospho-YAP (Ser127) in JHH-5 cells. Put plainly: pYAP HTRF Assay (JHH-5 cells). In kind it is cell-based. The following applies: 2 hours. The method in brief: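 Phospho-YAP read by HTRF (665 nm/620 nm ×10000) in lysates after overnight 18 h antibody incubation at room temperature. Compound treatment lasted 2 h at 37 °C, on JHH-5 cells plated 24 h earlier at 24000 per well in William's E medium with 10% FBS.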

For test [8], the system named is hepatic progenitor cells (HPC). Nature of the test: Mouse Hepatic Progenitor Cell Proliferation Assay. The class given is cell-based. As to conditions: 96 h, mean number of nuclei per organoid, 4 days. The method, then: The progenitor cells were isolated from C57Bl/6 wild type mice and expanded as described (Lu, W. Y. et al., Nat. Cell Biol. 17, 971-983 (2015)). Cells are stocked in liquid nitrogen, thawed on need and tested using the following protocol: HPC are harvested from their collagen I coated culture vessel (Corning; cat. Number 354487), counted and assessed for viability using a CEDEX cell counter (Roche). After centrifugation, 12 million cells are re-suspended in 2 ml of William's E Medium (Life Technologies; cat. Number 22551089) supplemented with 10% Fetal Bovine Serum (Amimed; cat. Number 2-01F10-I); 1% Penicillin/Streptomycin (Sigma; cat. Number 15140-122); 17.6 mM of NaHCO3 (Sigma; cat. Number S8761); 20 mM HEPES (Gibco; cat. Number H3375); 10 mM Nicotinamide (Sigma; cat. Number N0636-100); 14 mM glucose (Sigma; cat. Number G7021); 1 mM Sodium Pyruvate (Sigma; cat. Number TMS-005); Insulin Transferrin Selenium (ITS) diluted 100 times from stock solution (Sigma; cat. Number 13148); 100 nM Dexamethasone (Sigma; cat. Number D4902); 0.2 mM ascorbic acid (Sigma; cat. Number A7506-100G); 10 ng/ml recombinant human IL-6 (Preprotech; cat. Number 200-06); 10 ng/ml murine HGF (Preprotech; cat. Number 315-23; Lot. 0711S527); 10 ng/ml murine EGF (Preprotech; cat. Number 315-09; Lot. 0217179-1). Six milliliters of Matrigel (Corning; cat. Number 354277; Lot: 5187006) are added to the cell/media solution, thus the final cell concentration is 1.5 million HPC per milliliter, in 25% culture medium and 75% Matrigel. Five microliter (p1) of the cell/Matrigel suspension are transferred in each well of the clear bottom 96 well assay plate (Corning; cat. Number 356649) using the Star dispenser (Hamilton). […]
Plates are imaged with the CV7000 imager (Yokogawa) at a 10 fold magnification using the bright field lamp (lamp power: 10%; exposure time: 20 ms) and the 405 nanometer laser (laser power: 100%; exposure time 200 ms). Four different images per well were acquired and analyzed with the Yokogawa image analysis software (YAS). […]

The target in test [9] is Human LATS1 kinase domain protein (Homo sapiens (Human), UniProt O95835). Nature of the test: LATS1 Biochemical Caliper Assay (Compound Examples 291-335). The following applies: Caliper EZ Reader. The method, then: The LATS1 biochemical Caliper assay was performed as following.
Sequence of Human LATS1 kinase domain protein (O95835 whole entry, looked up, the tested form may be a part): as the sequence (O95835 whole entry, looked up, the tested form may be a part) above
Sequence of Human LATS1 kinase domain protein (Q7L9L4 whole entry partner, looked up, the tested form may be a part): as the sequence (Q7L9L4 whole entry partner, looked up, the tested form may be a part) above
Human LATS1 kinase domain protein was purchased from Carnabio (catalogue number 01-123; lot 15CBS-0098D). Human LATS1, catalytic domain [589-1130(end) amino acids of accession number NP_004681.1] was co-expressed as N-terminal GST-fusion protein (90 kDa) with human His-tagged MOBKL1A [1-216(end) amino acids of accession number NP_775739.1] using baculovirus expression system. GST-LATS1 was purified by using glutathione sepharose chromatography. The substrate (Fluo-SGKtide; Peptide for LATS1; lot BS-41067) has the following sequence: 5-Fluo-Nva-[…]-amide (SEQ ID NO: 27) x TFA and was purchased from Biosyntan.
The reaction is performed in reaction buffer containing 50 mM Hepes pH 7,5; 0.02% Tween20; 0.02% BSA; 1 mM DTT; 10 uM Na3VO4 and 10 mM beta-Glycerolphosphat and fresh added 1 mM MgCl2 and qsp H2O.
The substrate solution (2× conc.) in Reaction Buffer contains 300 μM ATP and 4 μM Fluo-SGKtide.
The kinase solution (2× conc.) in Reaction Buffer contains 20 nM LATS1 kinase. 4.5 μL of 2× conc. Kinase solution, 50 nL of 1.8 mM compounds and 4.5 μL of substrate solution were added into 384-well plates black small volume from Greiner and incubated at 32° C. for 1 hour. 15 μL of stop buffer containing 100 mM Hepes pH 7,5; 5% DMSO; 0.1% Coating reagent; 10 mM EDTA and 0.02% Brij35 and qsp H2O to each well to terminate the reaction.
Substrates and products were electrophoretically separated using the microfluidic-based Caliper EZ Reader System (Caliper Life Sciences) using a 12 sipper chip (cat 760404). The separation takes place in Coating Buffer (idem Stop buffer) and containing 0.1% Coating reagent CR3 and 0.5% coating reagent CR8 (Perkin Elmer).
Plates were read using a LED with an excitation at 488 nm and a detection at 520 nm to 5 quantify the fluorescence intensity.

Sequence of Human LATS2 kinase domain protein (Q9NRM7 553-1088): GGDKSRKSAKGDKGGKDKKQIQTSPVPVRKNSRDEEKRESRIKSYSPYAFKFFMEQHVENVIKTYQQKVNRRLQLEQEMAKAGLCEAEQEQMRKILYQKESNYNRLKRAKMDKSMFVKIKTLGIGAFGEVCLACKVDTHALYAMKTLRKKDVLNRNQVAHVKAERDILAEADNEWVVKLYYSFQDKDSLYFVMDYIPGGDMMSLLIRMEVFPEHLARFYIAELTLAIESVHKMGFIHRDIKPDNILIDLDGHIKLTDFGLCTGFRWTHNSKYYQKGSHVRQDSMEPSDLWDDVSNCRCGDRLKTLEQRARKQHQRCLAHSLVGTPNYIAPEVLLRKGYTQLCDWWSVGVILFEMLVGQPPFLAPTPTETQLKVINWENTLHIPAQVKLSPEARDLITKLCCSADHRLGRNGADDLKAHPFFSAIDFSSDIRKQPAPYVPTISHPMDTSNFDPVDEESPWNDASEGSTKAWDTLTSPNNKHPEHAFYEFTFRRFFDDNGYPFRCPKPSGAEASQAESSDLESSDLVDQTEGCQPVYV
Sequence of Human LATS2 kinase domain protein (Q7L9L4 whole entry partner, the tested form may be a part): as the sequence (Q7L9L4 whole entry partner, looked up, the tested form may be a part) above

With `CC(C)(O)COCC(C)(C)Nc1nc(-c2ccncc2)nc2cnccc12` [Example 12, 2-methyl-1-(2-methyl-2-{[2-(pyridin-4-yl)pyrido[3,4-d]pyrimidin-4-yl]amino}propoxy)propan-2-ol], the “differentiation of expanded LSCs into corneal epithelium cells (keratin 12)” value in test [1] is on record as “can differentiate into corneal epithelium cells”. In addition, the “conjunctivalization (keratin-19) in transplanted eye” value in [2] is reported as “prevented conjunctivalization by keratin-19-positive conjunctival cells”. Besides, the “corneal epithelium regeneration (keratin-12) in transplanted eye” value in test [2] is “lead to regeneration of a keratin-12-positive corneal epithelium”. Also, the IC50 in [3] is 4 nM; in test [4], 15 nM; in test [5] it was 1150 nM; in [7], 2900 nM. The same molecule yielded an EC50 in test [6] of 1750 nM.
Consider `CC(C)(Nc1nc(-c2ccncc2)nc2cnccc12)C(F)(F)F` [Example 58, 2-(pyridin-4-yl)-N-(1,1,1-trifluoro-2-methylpropan-2-yl)pyrido[3,4-d]pyrimidin-4-amine], for which the IC50 worked out at 1 nM in [3], 170 nM in [4], 185 nM in [5] and 600 nM in test [7]. The figures for the EC50 in [8] and in [6] were 840 nM and 302 nM, respectively.
With `CC1CNCCN1c1cc(-c2ccncc2)nc2cnccc12` (centres unmarked) [Example 303, 4-(2-methylpiperazin-1-yl)-2-(pyridin-4-yl)-1,7-naphthyridine], the IC50 was 10.2 nM in [9] and above 10000 nM in test [7]. This molecule also gave an EC50 in test [8] above 20000 nM.

By IC50 is commonly meant the midpoint of a concentration-inhibition curve. High values mean lower potency, low ones higher potency. A word on the EC50: it is the midpoint of the concentration-response curve. Low values mean a more potent agent, high ones a less potent agent.
